Results taken from a flash point compilation (Sun et al. 2020).

Row | flash point | Compound
1 | -20.00 °C | C1CCCCC1 [cyclohexane]
2 | 74.00 °C | CCCCCCCCCCCC [dodecane]

Continued, compound first:

Row | Compound | flash point
3 | Cc1cc(C)cc(C)c1 [1,3,5-trimethylbenzene] | 50.00 °C
4 | Cc1cccc(C)c1C [1,2,3-trimethylbenzene] | 44.00 °C
5 | CNCCO [2-(methylamino)ethanol] | 74.00 °C
6 | CCCCCC [hexane] | -23.00 °C
7 | Cc1ccccc1 [toluene] | 4.00 °C

Remark: another data set of the same source

Row | flash point | Compound
8 | -18 °C | C1CCCCC1 [cyclohexane]
9 | 71 °C | CCCCCCCCCCCC [dodecane]
10 | 15 °C | CCC(C(C)C)C(C)C [3-ethyl-2,4-dimethylpentane]
11 | 57 °C | CCCSSCC [ethylpropyldisulfide]
12 | 53 °C | CCCCCOC(=O)CC [pentylpropanoate]
13 | 10 °C | O=C1CCC1 [cyclobutanone]
14 | 31 °C | C1COCCN1 [morpholine]
15 | 20 °C | C=CC(C)O (stereo not given) [3-buten-2-ol]
16 | -14 °C | CC(C)OC=O [isopropylformate]
17 | 35 °C | CCCN(CCC)CCC [tripropylamine]
18 | 6 °C | C[C@@H]1CCC[C@H](C)C1 [cis-1,3-dimethylcyclohexane]
19 | 130 °C | CCCCCCC(=O)OC(=O)CCCCCC [heptanoicanhydride]
20 | 48 °C | CCCCC1CCCCC1 [butylcyclohexane]
21 | 52 °C | CCCc1cccc(C)c1 [m-propyltoluene]
22 | 113 °C | CC(=O)OCCCc1ccccc1 [3-phenylpropylacetate]
23 | -9 °C | CC(C)(C)OC=O [tert-butylformate]
24 | 38 °C | CCCCC(=O)CC [3-heptanone]
25 | 6 °C | C[C@H]1CC[C@H](C)CC1 [trans-1,4-dimethylcyclohexane]
26 | 12 °C | C=CCC1CCCC1 [allylcyclopentane]
27 | -38 °C | CC(C)(C)N [tert-butylamine]
28 | 6 °C | C=COC(=O)CC [vinylpropanoate]
29 | 91 °C | CC(C)CC(=O)OC(=O)CC(C)C [3-methylbutanoicanhydride]
30 | 56 °C | CCCCCCC(C)=O [2-octanone] [listing 1 of 2 here]
31 | 15 °C | C#CCCCCl [5-chloro-1-pentyne]

Second part, the compound before the results:

Row | Compound | flash point
32 | Cc1cc(C)cc(C)c1 [1,3,5-trimethylbenzene] | 44 °C
33 | Cc1cccc(C)c1C [1,2,3-trimethylbenzene] | 51 °C
34 | CNCCO [2-(methylamino)ethanol] | 72 °C
35 | CCCCCC [hexane] | -26 °C
36 | Cc1ccccc1 [toluene] | 7 °C
37 | C1CCC(C2CCCCC2)CC1 [bicyclohexyl] | 92 °C
38 | c1ccncc1 [pyridine] | 17 °C
39 | CCCCCC(C)C [2-methylheptane] | 4 °C
40 | CCCCC[N+](=O)[O-] [1-nitropentane] | 61 °C
41 | CC(C)=CC(C)(C)C [2,4,4-trimethyl-2-pentene] | -1 °C
42 | C=CCCCCCCCCCCCCCC [1-hexadecene] | 129 °C
43 | CCNCC [diethylamine] | -23 °C
44 | CCCCBr [1-bromobutane] | 10 °C
45 | CN(CCO)CCO [N-methyldiethanolamine] | 137 °C
46 | CCC(C)C(C)C (stereo not given) [2,3-dimethylpentane] | -15 °C
47 | CC=CC#N [2-butenenitrile] | 17 °C
48 | CCCCC(C)(C)C [2,2-dimethylhexane] | -3 °C
49 | CCC(C)O (stereo not given) [2-butanol] | 24 °C
50 | C=CCCl [3-chloropropene] | -28 °C
51 | CC(C)CC(C)(C)C [2,2,4-trimethylpentane] | -7 °C
52 | CCCc1cccc(C)c1C [1,2-dimethyl-3-propylbenzene] | 72 °C

Remark: another data set of the same source

Row | Compound | flash point
53 | C=CCCC=C [1,5-hexadiene] | -27 °C
54 | Cc1cccnc1 [3-methylpyridine] | 38 °C
55 | CCCCCCC(C)=O [2-octanone] [listing 2 of 2 here] | 62 °C
